Experimental data from patent publication US11957680B2, “Pyruvate kinase activators for use in treating blood disorders” (Agios Pharmaceuticals, Inc., priority 2017, dated 2024).

Tests used:
PKR K410E = PKR K410E (Homo sapiens, UniProt P30613, K410E); experiment: PKR mutant assay (K410E), AC50, LDH/NADH-coupled, absorbance at 340 nm; format: biochemical; conditions: for EC50: Table 4, AC50, enzyme assay
In short: (§1)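 Human PKR, wild type or K410E/R510Q mutant (40-400 ng/well), preincubated 60 min at room temperature with compound (11-point 3-fold series from 100 μM, 1% DMSO) in Tris pH 7.5/KCl/MgCl2 buffer with PEP 0.1-0.5 mM, 180 μM NADH, LDH. ADP (0.2-1.65 mM) started the reaction; LDH-coupled NADH consumption followed at 340 nm.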

PKR R510Q = PKR R510Q (Homo sapiens, UniProt P30613, R510Q); experiment: PKR mutant assay (R510Q), AC50, LDH/NADH-coupled, absorbance at 340 nm; format: biochemical; conditions: for EC50: Table 4, AC50, enzyme assay, read-out: PK R510Q; for AC50: Table 2, enzyme assay, read-out: PK R510Q AC50
In short: as §1

wild type PKR [1] = biological target: T1, wild type PKR (Homo sapiens, UniProt P30613); experiment: PKR (wild type) enzyme AC50 assay, LDH/NADH-coupled, absorbance at 340 nm; format: biochemical; conditions: for EC50: Table 4, AC50, enzyme assay, read-out: PKR WT; for AC50: Table 2, enzyme assay, read-out: PKR WT AC50
In short: as §1

wild type PKR [2] = biological target: T1, wild type PKR; experiment: Cell based ATP assay in purified red blood cells (Cell-Titer-Glo); set-up: endogenous in cells; host or cells: purified red blood cells from healthy volunteers; conditions: overnight at 37° C., ATP levels; for EC50: Table 4, AC50, RBCs
In short: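 RBCs from healthy human donors' K2EDTA blood were leukocyte-depleted by filtration and resuspended in AGAM (PBS, 1% glucose, adenine, mannitol). Cells at 1×10^7 cells/mL were incubated overnight at 37 °C with serially diluted compound at 0.1% DMSO, and ATP was read by Cell-Titer-Glo luminescence.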

PKR K410E, sequence (P30613 whole entry K410E): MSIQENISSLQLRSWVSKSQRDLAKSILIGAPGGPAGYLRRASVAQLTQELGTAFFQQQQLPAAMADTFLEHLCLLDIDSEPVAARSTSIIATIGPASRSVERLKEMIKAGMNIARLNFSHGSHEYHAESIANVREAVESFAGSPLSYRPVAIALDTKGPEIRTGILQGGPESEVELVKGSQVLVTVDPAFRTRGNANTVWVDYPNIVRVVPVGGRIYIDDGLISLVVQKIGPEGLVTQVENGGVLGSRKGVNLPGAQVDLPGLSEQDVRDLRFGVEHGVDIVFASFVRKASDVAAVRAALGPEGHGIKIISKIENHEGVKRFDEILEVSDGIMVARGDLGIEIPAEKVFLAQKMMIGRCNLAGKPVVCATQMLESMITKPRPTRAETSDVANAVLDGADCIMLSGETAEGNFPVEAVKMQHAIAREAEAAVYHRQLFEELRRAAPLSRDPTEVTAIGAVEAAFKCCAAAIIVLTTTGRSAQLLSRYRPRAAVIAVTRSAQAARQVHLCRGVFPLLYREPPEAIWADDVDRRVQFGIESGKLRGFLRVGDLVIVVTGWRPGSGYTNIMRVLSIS
PKR R510Q, sequence (P30613 whole entry R510Q): as the sequence (P30613 whole entry K410E) above, with E410K, R510Q counted along it
T1 sequence (P30613 whole entry): as the sequence (P30613 whole entry K410E) above, with E410K counted along it

Q: For `Cn1c2nc(Cc3cscn3)sc2c2cnn(Cc3ccccc3)c(=O)c21` [Compound 270], which EC50 (PKR K410E) is on record?
A: < 300 nM

Q: And the EC50 (PKR R510Q)?
A: < 300 nM

Q: And the EC50 (wild type PKR [1])?
A: < 300 nM

Q: What about the EC50 (wild type PKR [2]) of the same compound?
A: ≤ 1000 nM

Q: What does the source list for `Cc1nc2c(s1)c1cnn(Cc3ccc(CO)cc3)c(=O)c1n2C` [Compound 44]?
A: AC50 (PKR K410E; Table 2, enzyme assay): > 800 nM; AC50 (PKR R510Q): > 800 nM; AC50 (wild type PKR [1]): > 800 nM; AC50 (wild type PKR [2]; Table 2, RBCs): > 1000 nM

Q: Which AC50 (PKR K410E; Table 2, enzyme assay) does the source give for `Cn1c2nc([S+](C)[O-])sc2c2cnn(Cc3cccc(C(C)(C)O)c3)c(=O)c21` (centres unmarked) [Compound 87] here?
A: < 300 nM

Q: And the AC50 (PKR R510Q)?
A: 301 to 800 nM

Q: And the AC50 (wild type PKR [1])?
A: < 300 nM

Q: And the AC50 (wild type PKR [2]; Table 2, RBCs)?
A: ≤ 1000 nM

Q: How did the AC50 (PKR K410E; Table 2, enzyme assay) turn out when `CC(c1ccccc1)c1nc2c(s1)c1cnn(Cc3cccc4c3cnn4C)c(=O)c1n2C` (centres unmarked) [Compound 120] was run?
A: 301 to 800 nM

Q: And the AC50 (PKR R510Q)?
A: 301 to 800 nM

Q: What about the AC50 (wild type PKR [1]) of the same compound?
A: 301 to 800 nM

Q: And the AC50 (wild type PKR [2]; Table 2, RBCs)?
A: ≤ 1000 nM

Q: With `Cn1cc(Cc2nc3c(s2)c2cnn(Cc4cccc(C(N)=O)c4)c(=O)c2n3C)cn1` [Compound 389] as the compound, how does the EC50 (PKR K410E) read?
A: > 800 nM

Q: What about the EC50 (PKR R510Q) of the same compound?
A: 301 to 800 nM

Q: And the EC50 (wild type PKR [1])?
A: > 800 nM

Q: What about the EC50 (wild type PKR [2]) of the same compound?
A: > 1000 nM

Q: Which results are given for `Cn1c2nc(C3(c4ccccc4)CC3)sc2c2cnn(Cc3cccc4[nH]ncc34)c(=O)c21` [Compound 140]?
A: AC50 (PKR K410E; Table 2, enzyme assay): > 800 nM; AC50 (PKR R510Q): > 800 nM; AC50 (wild type PKR [1]): > 800 nM; AC50 (wild type PKR [2]; Table 2, RBCs): > 1000 nM

Q: What does the source list for `Cn1c2nc(Cc3ccc(C#N)cc3)sc2c2cnn(Cc3cccc4[nH]ncc34)c(=O)c21` [Compound 93]?
A: AC50 (PKR K410E; Table 2, enzyme assay): > 800 nM; AC50 (PKR R510Q): > 800 nM; AC50 (wild type PKR [1]): > 800 nM; AC50 (wild type PKR [2]; Table 2, RBCs): > 1000 nM

Q: With `Cn1c2nc(C#N)sc2c2cnn(Cc3cccc(N)n3)c(=O)c21` [Compound 147] as the compound, how does the AC50 (PKR K410E; Table 2, enzyme assay) read?
A: < 300 nM

Q: And the AC50 (PKR R510Q)?
A: 301 to 800 nM

Q: What about the AC50 (wild type PKR [1]) of the same compound?
A: < 300 nM

Q: And the AC50 (wild type PKR [2]; Table 2, RBCs)?
A: ≤ 1000 nM

Q: `Cc1nc2c(s1)c1cnn(Cc3cccc(CN)c3)c(=O)c1n2C` [Compound 58] was tested. Which AC50 (PKR K410E; Table 2, enzyme assay) did it give?
A: < 300 nM

Q: And the AC50 (PKR R510Q)?
A: < 300 nM

Q: And the AC50 (wild type PKR [1])?
A: < 300 nM

Q: And the AC50 (wild type PKR [2]; Table 2, RBCs)?
A: > 1000 nM

Q: Which EC50 (PKR K410E) does the source give for `Cc1nc2c(s1)c1cnn(Cc3cccc(C(N)=O)c3)c(=O)c1n2C` [Compound 395] here?
A: 301 to 800 nM

Q: And the EC50 (PKR R510Q)?
A: > 800 nM

Q: What about the EC50 (wild type PKR [1]) of the same compound?
A: > 800 nM

Q: What about the EC50 (wild type PKR [2]) of the same compound?
A: > 1000 nM

Q: `Cn1ncc2c(Cn3ncc4c5sc(Cc6cc[nH]n6)nc5n(C)c4c3=O)cccc21` [Compound 201] was tested. Which EC50 (PKR K410E) did it give?
A: < 300 nM

Q: What about the EC50 (PKR R510Q) of the same compound?
A: < 300 nM

Q: What about the EC50 (wild type PKR [1]) of the same compound?
A: < 300 nM

Q: What about the EC50 (wild type PKR [2]) of the same compound?
A: ≤ 1000 nM

Q: Which results are given for `Cn1c2nc(Cc3cc[nH]n3)sc2c2cnn(CCc3cscn3)c(=O)c21` [Compound 401]?
A: EC50 (PKR K410E): < 300 nM; EC50 (PKR R510Q): < 300 nM; EC50 (wild type PKR [1]): < 300 nM; EC50 (wild type PKR [2]): ≤ 1000 nM

Q: How did the EC50 (PKR K410E) turn out when `Cn1c2nc(Cc3c[nH]nn3)sc2c2cnn(Cc3cccc(OC(F)(F)F)c3)c(=O)c21` [Compound 290] was run?
A: < 300 nM

Q: And the EC50 (PKR R510Q)?
A: < 300 nM

Q: What about the EC50 (wild type PKR [1]) of the same compound?
A: < 300 nM

Q: And the EC50 (wild type PKR [2])?
A: ≤ 1000 nM

Q: For `Cn1c2nc(Cc3cnn[nH]3)sc2c2cnn(Cc3cccc4[nH]ncc34)c(=O)c21` [Compound 217], which EC50 (PKR K410E) is on record?
A: < 300 nM

Q: What about the EC50 (PKR R510Q) of the same compound?
A: < 300 nM

Q: What about the EC50 (wild type PKR [1]) of the same compound?
A: < 300 nM

Q: What about the EC50 (wild type PKR [2]) of the same compound?
A: ≤ 1000 nM

Q: Which AC50 (PKR K410E; Table 2, enzyme assay) does the source give for `Cc1nc2c(s1)c1cnn(Cc3cccc4[nH]ncc34)c(=O)c1n2C` [Compound 26] here?
A: > 800 nM

Q: And the AC50 (PKR R510Q)?
A: < 300 nM

Q: And the AC50 (wild type PKR [1])?
A: < 300 nM

Q: And the AC50 (wild type PKR [2]; Table 2, RBCs)?
A: ≤ 1000 nM

Q: How did the “PKR K410E AC50” value (PKR K410E; Table 2, enzyme assay) turn out when `COc1cccc(Cn2ncc3c4sc(C(=O)c5ccccc5)nc4n(C)c3c2=O)c1` [Compound 4] was run?
A: No Fit

Q: And the AC50 (PKR R510Q)?
A: > 800 nM

Q: What about the AC50 (wild type PKR [1]) of the same compound?
A: > 800 nM

Q: What about the “Cell based ATP assay AC50” value (wild type PKR [2]; Table 2, RBCs) of the same compound?
A: No Fit

Q: Which results are given for `Cn1c2nc([S+](C)[O-])sc2c2cnn(Cc3cccc4c3CCNC4)c(=O)c21` (centres unmarked) [Compound 80]?
A: AC50 (PKR K410E; Table 2, enzyme assay): > 800 nM; AC50 (PKR R510Q): < 300 nM; AC50 (wild type PKR [1]): > 800 nM; AC50 (wild type PKR [2]; Table 2, RBCs): > 1000 nM

Q: For `CC(=O)NCc1nc2c(s1)c1cnn(Cc3cccc4[nH]ncc34)c(=O)c1n2C` [Compound 139], which AC50 (PKR K410E; Table 2, enzyme assay) is on record?
A: < 300 nM

Q: What about the AC50 (PKR R510Q) of the same compound?
A: < 300 nM

Q: What about the AC50 (wild type PKR [1]) of the same compound?
A: < 300 nM

Q: And the AC50 (wild type PKR [2]; Table 2, RBCs)?
A: ≤ 1000 nM

Q: Which EC50 (PKR K410E) does the source give for `Cn1c2nc(Cc3cccc4cn[nH]c34)sc2c2cnn(Cc3cc[nH]n3)c(=O)c21` [Compound 241] here?
A: < 300 nM

Q: And the EC50 (PKR R510Q)?
A: < 300 nM

Q: What about the EC50 (wild type PKR [1]) of the same compound?
A: < 300 nM

Q: And the EC50 (wild type PKR [2])?
A: ≤ 1000 nM

Q: Which AC50 (PKR K410E; Table 2, enzyme assay) does the source give for `Cn1c2nc(CNS(C)(=O)=O)sc2c2cnn(Cc3cccc4[nH]ncc34)c(=O)c21` [Compound 142] here?
A: < 300 nM

Q: And the AC50 (PKR R510Q)?
A: 301 to 800 nM

Q: And the AC50 (wild type PKR [1])?
A: < 300 nM

Q: And the AC50 (wild type PKR [2]; Table 2, RBCs)?
A: ≤ 1000 nM

Q: `Cn1c2nc(Cc3cc(F)[nH]n3)sc2c2cnn(Cc3cccc4[nH]ncc34)c(=O)c21` [Compound 234] was tested. Which EC50 (PKR K410E) did it give?
A: < 300 nM

Q: What about the EC50 (PKR R510Q) of the same compound?
A: < 300 nM

Q: What about the EC50 (wild type PKR [1]) of the same compound?
A: < 300 nM

Q: What about the EC50 (wild type PKR [2]) of the same compound?
A: > 1000 nM

Q: What does the source list for `Cn1c2nc(Cc3cccc(C#N)c3)sc2c2cnn(Cc3cccc4[nH]ncc34)c(=O)c21` [Compound 99]?
A: AC50 (PKR K410E; Table 2, enzyme assay): 301 to 800 nM; AC50 (PKR R510Q): 301 to 800 nM; AC50 (wild type PKR [1]): < 300 nM; AC50 (wild type PKR [2]; Table 2, RBCs): ≤ 1000 nM

Q: What does the source list for `Cn1c2nc(Cc3n[nH]cc3Cl)sc2c2cnn(Cc3cccc4[nH]ncc34)c(=O)c21` [Compound 244]?
A: EC50 (PKR K410E): < 300 nM; EC50 (PKR R510Q): < 300 nM; EC50 (wild type PKR [1]): < 300 nM; EC50 (wild type PKR [2]): ≤ 1000 nM
